“And” between values parts separate entries of the source, which are not always exact repeats. Identical values can stand only once.
What was measured:
[1] = species: Homo sapiens
Description: Relative efficacy in human ATP binding cassette transporter A1 (ABCA1) transcriptional activation assay compared to GW-3965

[2] = target: T1, Oxysterols receptor LXR-beta (Homo sapiens, UniProt P55055); assay: Effective concentration for Steroid receptor coactivator-1 (SRC1) recruitment to human LXRbeta (Liver X receptor)
T1 sequence (P55055 whole entry): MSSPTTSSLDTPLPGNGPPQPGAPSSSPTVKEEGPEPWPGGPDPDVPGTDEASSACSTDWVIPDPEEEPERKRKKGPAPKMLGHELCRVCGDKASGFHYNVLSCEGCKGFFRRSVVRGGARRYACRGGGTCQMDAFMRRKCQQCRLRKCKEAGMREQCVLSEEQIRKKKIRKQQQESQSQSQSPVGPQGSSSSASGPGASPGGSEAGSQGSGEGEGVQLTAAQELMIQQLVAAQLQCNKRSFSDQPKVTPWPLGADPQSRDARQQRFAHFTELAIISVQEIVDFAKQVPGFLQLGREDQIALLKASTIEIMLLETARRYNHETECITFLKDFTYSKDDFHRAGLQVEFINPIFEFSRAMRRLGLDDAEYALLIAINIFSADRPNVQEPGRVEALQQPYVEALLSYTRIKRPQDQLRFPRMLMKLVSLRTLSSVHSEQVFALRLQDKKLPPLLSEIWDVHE

[3] = target: T2, Oxysterols receptor LXR-alpha (Homo sapiens, UniProt Q13133); assay: Effective concentration for Steroid receptor coactivator-1 (SRC1) recruitment to human LXRalpha (Liver X receptor)
T2 sequence (Q13133 whole entry): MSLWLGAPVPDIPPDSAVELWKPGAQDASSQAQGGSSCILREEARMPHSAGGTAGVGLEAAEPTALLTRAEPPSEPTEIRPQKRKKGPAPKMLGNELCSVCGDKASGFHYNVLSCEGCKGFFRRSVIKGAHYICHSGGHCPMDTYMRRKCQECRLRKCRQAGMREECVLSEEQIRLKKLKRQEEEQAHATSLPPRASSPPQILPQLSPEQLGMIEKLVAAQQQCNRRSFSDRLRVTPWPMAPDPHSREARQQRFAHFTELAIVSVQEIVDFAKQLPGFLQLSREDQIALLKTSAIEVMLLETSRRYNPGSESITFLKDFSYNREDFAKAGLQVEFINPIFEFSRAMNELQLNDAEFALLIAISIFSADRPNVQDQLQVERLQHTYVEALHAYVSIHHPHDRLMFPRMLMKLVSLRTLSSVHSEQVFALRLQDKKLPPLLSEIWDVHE

[4] = target: Glycogen synthase kinase-3 beta (Homo sapiens, UniProt P49841); assay: Inhibition of human GSK3-beta
[5] = target: T3, Oxysterols receptor LXR-alpha (Homo sapiens) (UniProt Q13133)
T3 sequence (whole entry): T2 sequence (Q13133 whole entry)
Description: Relative efficacy for Steroid receptor coactivator-1 (SRC1) recruitment to human LXRalpha compared to GW-3965

[6] = Effective concentration in human ATP binding cassette transporter A1 (ABCA1) transcriptional activation assay
[7] = target: T4, Oxysterols receptor LXR-beta (Homo sapiens) (UniProt P55055); assay: Relative efficacy in Steroid receptor coactivator-1 (SRC1) recruitment to human LXRbeta compared to GW-3965
T4 sequence (whole entry): T1 sequence (P55055 whole entry)

Chain of Glycogen synthase kinase-3 beta (P49841 whole entry): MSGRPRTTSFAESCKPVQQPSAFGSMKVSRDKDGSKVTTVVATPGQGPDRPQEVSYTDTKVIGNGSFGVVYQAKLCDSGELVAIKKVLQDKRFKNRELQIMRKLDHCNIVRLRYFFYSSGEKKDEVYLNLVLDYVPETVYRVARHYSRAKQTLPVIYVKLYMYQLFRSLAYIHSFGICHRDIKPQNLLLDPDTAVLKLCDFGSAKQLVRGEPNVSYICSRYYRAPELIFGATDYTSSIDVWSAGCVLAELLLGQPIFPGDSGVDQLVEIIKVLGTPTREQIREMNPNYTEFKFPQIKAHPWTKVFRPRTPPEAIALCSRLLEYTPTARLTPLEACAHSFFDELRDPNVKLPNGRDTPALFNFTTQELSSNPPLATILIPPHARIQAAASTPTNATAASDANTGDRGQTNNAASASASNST

RE [1] | EC50 [2] | EC50 [3] | IC50 [4] | RE [5] | EC50 [6] | RE [7] | Structure (SMILES)
0.4 | 200 nM | 300 nM | > 5000 nM | 1.1 and 0.9 | 10200 nM | – | CCN1C(=O)C(Nc2ccc(OC)cc2)=C(c2ccccc2)C1=O
0.9 | 40 nM | 50 nM | > 5000 nM | 0.9 | 80 nM | – | COc1ccc(NC2=C(c3ccccc3)C(=O)N(Cc3ccccc3)C2=O)cc1
0.7 | 260 nM | 275 nM | > 5000 nM | 0.7 and 0.6 | 1120 nM | – | COc1ccc(NC2=C(c3ccccc3)C(=O)N(c3ccccc3)C2=O)cc1
0.6 | 70 nM | 100 nM | > 5000 nM | 0.3 and 0.5 | 1320 nM | – | O=C1C(Nc2ccccc2)=C(c2ccccc2)C(=O)N1Cc1ccccc1
1.4 | 300 nM | 575 nM | > 2000 nM | 0.9 | 840 nM | – | COc1ccc(NC2=C(c3ccccc3)C(=O)N(C)C2=O)cc1
0.5 | 560 nM | 890 nM | > 5000 nM | 0.7 | 1790 nM | – | CCN1C(=O)C(Nc2ccccc2)=C(c2ccccc2)C1=O
0.4 | 110 nM | 130 nM | > 5000 nM | 0.3 and 0.4 | 1420 nM | – | O=C1C(Nc2ccc(Cl)cc2)=C(c2ccccc2)C(=O)N1Cc1ccccc1
1 | – | 80 nM | – | 1 | 170 nM | 1 | O=C(O)Cc1cccc(OCCCN(Cc2cccc(C(F)(F)F)c2Cl)CC(c2ccccc2)c2ccccc2)c1
0.3 | 850 nM | 1590 nM | > 5000 nM | 0.5 and 0.6 | 4650 nM | – | CN1C(=O)C(Nc2ccccc2)=C(c2ccccc2)C1=O
1 | – | – | – | 1.1 and 0.8 | 70 nM | – | O=S(=O)(c1ccccc1)N(CC(F)(F)F)c1ccc(C(O)(C(F)(F)F)C(F)(F)F)cc1 [T091317]
0.4 | 575 nM | 725 nM | > 5000 nM | 0.5 and 0.6 | 4550 nM | – | CCN1C(=O)C(Nc2ccc(Cl)cc2)=C(c2ccccc2)C1=O

From ChEMBL document CHEMBL1145169, “Discovery of substituted maleimides as liver X receptor agonists and determination of a ligand-bound crystal structure” (J Med Chem, 2005)
